In US20250213505A1, “DEVICES AND METHODS FOR DELIVERING SYNERGISTIC ACTIVE AGENTS TO TARGET SITES” (priority 2023, published 2025):
Read-outs that look alike come from different tables or passages of the source.

Experiments:
Type in all cases: cell-based
[1] = test system: E. coli (ATCC BAA 1427); assay: Minimum inhibitory concentration / growth inhibition, serial 2-fold dilution
Description: (§1) The minimal inhibitory concentration (MIC, the minimum inhibitory concentration required for 90% growth reduction) of benzalkonium chloride was determined against S. aureus (ATCC 6538), P. aeruginosa (ATCC 15442), and E. coli (ATCC BAA 1427) by serial 2-fold dilution experiments. A solution of chlorhexidine (0.025% w/w) was used as a positive control and comparator.

[2] = test system: P. aeruginosa (ATCC 15442); assay: as above
Description: as §1

[3] = test system: S. aureus (ATCC 6538); assay: as above
Description: as §1

[4] = test system: E. coli (ATCC BAA 1427); assay: Minimal bactericidal concentration, serial 2-fold dilution
Description: (§2) The minimal bactericidal concentration (MBC) of benzalkonium chloride was determined against S. aureus (ATCC 6538), P. aeruginosa (ATCC 15442), and E. coli (ATCC BAA 1427) by serial 2-fold dilution experiments. A solution of chlorhexidine (0.025% w/w) was used as a positive control and comparator.

[5] = test system: P. aeruginosa (ATCC 15442); assay: as above
Description: as §2

[6] = test system: S. aureus (ATCC 6538); assay: as above
Description: as §2

[7] = test system: E. coli; assay: Chequerboard assay, FIC and synergy analysis; conditions: for MIC: Escherichia coli
Description: (§3) Chlorhexidine gluconate (CHG) and benzalkonium chloride (BZK) were analyzed by chequerboard assay with each test organism to determine potential additive, synergistic, antagonistic activity. The test organisms S. aureus, P. aeruginosa, and E. coli were tested at ranges of chlorhexidine gluconate (0.122-15.625 μg/mL, 1.25-160 μg/mL, and […], respectively) and benzalkonium chloride (0.029-3.75 μg/mL, 0.4688-60 μg/mL, and 0.2344-30 μg/mL, respectively). The results of the chequerboard experiment are shown in Table X. FIC was calculated by the following Equation 2: […]

[8] = test system: P. aeruginosa; assay: Chequerboard assay, FIC and synergy analysis; conditions: for MIC: Pseudomonas aeruginosa
Description: as §3

[9] = test system: S. aureus; assay: Chequerboard assay, FIC and synergy analysis; conditions: for MIC: Staphylococcus aureus
Description: as §3

[10] = concentration 250 μg/mL (0.025% w/w), positive control
[11] = concentration 250 μg/mL (0.025% w/w), positive control, listed as chlorhexidine
[12] = concentration 250 μg/mL, positive control
[13] = read-out: MIC of CHG in Presence of BZK
[14] = concentration 0.46875 μg/mL, triplicate
[15] = concentration 0.9375 μg/mL, triplicate
[16] = concentration 1.875 μg/mL, triplicate
[17] = concentration 3.75 μg/mL, triplicate
[18] = concentration 7.5 μg/mL, triplicate
[19] = concentration 15 μg/mL, triplicate
[20] = concentration 30 μg/mL, triplicate
[21] = concentration 60 μg/mL, triplicate
[22] = serial 2-fold dilution, triplicate
[23] = concentration 0.46875 μg/mL, average of triplicate
[24] = concentration 0.9375 μg/mL, average of triplicate
[25] = concentration 1.875 μg/mL, average of triplicate
[26] = concentration 3.75 μg/mL, average of triplicate
[27] = concentration 7.5 μg/mL, average of triplicate
[28] = concentration 15 μg/mL, average of triplicate
[29] = concentration 30 μg/mL, average of triplicate
[30] = concentration 60 μg/mL, average of triplicate

Compound `N=C(NCCCCCCNC(=N)NC(=N)Nc1ccc(Cl)cc1)NC(=N)Nc1ccc(Cl)cc1` [Chlorhexidine gluconate, 1-[amino-[6-[amino-[amino-(4-chlorophenyl)amino-methylidene]amino-methylidene]aminohexylimino]methyl]imino-N-(4-chlorophenyl)-methanediamine; (2R,3S,4R,5R)-2,3,4,5,6-pentahydroxyhexanoic acid.] has an inhibition at 250 µg/mL ([1]; Escherichia coli, BAA1427, concentration 250 μg/mL (0.025% w/w), positive control) of 63%, an inhibition at 250 µg/mL ([2]; Pseudomonas aeruginosa, ATCC15442, read-out: Average Growth Inhibition (%)) of 81% and an inhibition at 250 µg/mL ([3]; Staphylococcus aureus, ATCC6538, read-out: Average Growth Inhibition (%)) of 121%. For the same compound, the “Number of Colonies” value [4, 10] was 0, the “Number of Colonies” value [4, 11] was “no colonies” and the CFU/mL [4, 12] was 0 CFU/mL. The “Number of Colonies” value [5, 10] was 0, the “Number of Colonies” value [5, 11] was “no colonies” and the CFU/mL [5, 12] was 0 CFU/mL. For the same compound, the “Number of Colonies” value [6, 10] was 0, the “Number of Colonies” value [6, 11] was “no colonies” and the CFU/mL [6, 12] was 0 CFU/mL. The MIC ([7]; read-out: MIC of CHG Alone) was 8 µg/mL, the MIC [7, 13] was 4 µg/mL and the MIC ([8]; read-out: MIC of CHG Alone (μg/mL)) was 40 µg/mL. The MIC ([8]; read-out: MIC of CHG in Presence of BZK (μg/mL)) was 2.5 µg/mL, the MIC ([9]; read-out: MIC of CHG Alone) was 1.95 µg/mL and the MIC [9, 13] was 0.977 µg/mL.
For Benzalkonium chloride, the “Average Growth Inhibition (%)” value [1, 14] was 3%, the “Average Growth Inhibition (%)” value [1, 15] was 5% and the “Average Growth Inhibition (%)” value [1, 16] was 6%. For the same compound, the “Average Growth Inhibition (%)” value [1, 17] was 7%, the “Average Growth Inhibition (%)” value [1, 18] was 18% and the “Average Growth Inhibition (%)” value [1, 19] was 100%. For the same compound, the “Average Growth Inhibition (%)” value [1, 20] was 100%, the “Average Growth Inhibition (%)” value [1, 21] was 100% and the “MIC that inhibited greater than 90% growth” value [1, 22] was 15 µg/mL. The “Average Growth Inhibition (%)” value [2, 14] was 4%, the “Average Growth Inhibition (%)” value [2, 15] was 5% and the “Average Growth Inhibition (%)” value [2, 16] was 7%. The “Average Growth Inhibition (%)” value [2, 17] was 7%, the “Average Growth Inhibition (%)” value [2, 18] was 8% and the “Average Growth Inhibition (%)” value [2, 19] was 8%. For the same compound, the “Average Growth Inhibition (%)” value [2, 20] was 28%, the “Average Growth Inhibition (%)” value [2, 21] was 100% and the “MIC that inhibited greater than 90% growth” value [2, 22] was 60 µg/mL. The “Average Growth Inhibition (%)” value [3, 14] was −30%, the “Average Growth Inhibition (%)” value [3, 15] was 100% and the “Average Growth Inhibition (%)” value [3, 16] was 101%. The “Average Growth Inhibition (%)” value [3, 17] was 101%, the “Average Growth Inhibition (%)” value [3, 18] was 99% and the “Average Growth Inhibition (%)” value [3, 19] was 101%. The “Average Growth Inhibition (%)” value [3, 20] was 101%, the “Average Growth Inhibition (%)” value [3, 21] was 98% and the “MIC that inhibited greater than 90% growth” value [3, 22] was 0.9375 µg/mL. The CFU/mL ([4]; concentration 0.46875 μg/mL) was “Lawn”, the “Number of Colonies” value [4, 23] was “Lawn (‘Lawn’ indicates too many colonies to accurately count (e.g., greater than 250 colonies on an agar plate))” and the CFU/mL ([4]; concentration 0.9375 μg/mL) was “Lawn”. The “Number of Colonies” value [4, 24] was “Lawn (‘Lawn’ indicates too many colonies to accurately count (e.g., greater than 250 colonies on an agar plate))”, the CFU/mL ([4]; concentration 1.875 μg/mL) was “Lawn” and the “Number of Colonies” value [4, 25] was “Lawn (‘Lawn’ indicates too many colonies to accurately count (e.g., greater than 250 colonies on an agar plate))”. The CFU/mL ([4]; concentration 3.75 μg/mL) was “Lawn”, the “Number of Colonies” value [4, 26] was “Lawn (‘Lawn’ indicates too many colonies to accurately count (e.g., greater than 250 colonies on an agar plate))” and the CFU/mL ([4]; concentration 7.5 μg/mL) was “Lawn”. For the same compound, the “Number of Colonies” value [4, 27] was “Lawn (‘Lawn’ indicates too many colonies to accurately count (e.g., greater than 250 colonies on an agar plate))”, the CFU/mL ([4]; concentration 15 μg/mL) was 0 CFU/mL and the “Number of Colonies” value [4, 28] was 0. The CFU/mL ([4]; concentration 30 μg/mL) was 0 CFU/mL, the “Number of Colonies” value [4, 29] was 0 and the CFU/mL ([4]; concentration 60 μg/mL) was 0 CFU/mL. The “Number of Colonies” value [4, 30] was 0, the “MBC (defined as having less than 500 CFU/mL)” value (“MBC” below) [4, 22] was 15 µg/mL and the CFU/mL ([5]; concentration 0.46875 μg/mL) was “Lawn”. The “Number of Colonies” value [5, 23] was “Lawn (‘Lawn’ indicates too many colonies to accurately count (e.g., greater than 250 colonies on an agar plate))”, the CFU/mL ([5]; concentration 0.9375 μg/mL) was “Lawn” and the “Number of Colonies” value [5, 24] was “Lawn (‘Lawn’ indicates too many colonies to accurately count (e.g., greater than 250 colonies on an agar plate))”. The CFU/mL ([5]; concentration 1.875 μg/mL) was “Lawn”, the “Number of Colonies” value [5, 25] was “Lawn (‘Lawn’ indicates too many colonies to accurately count (e.g., greater than 250 colonies on an agar plate))” and the CFU/mL ([5]; concentration 3.75 μg/mL) was “Lawn”. For the same compound, the “Number of Colonies” value [5, 26] was “Lawn (‘Lawn’ indicates too many colonies to accurately count (e.g., greater than 250 colonies on an agar plate))”, the CFU/mL ([5]; concentration 7.5 μg/mL) was “Lawn” and the “Number of Colonies” value [5, 27] was “Lawn (‘Lawn’ indicates too many colonies to accurately count (e.g., greater than 250 colonies on an agar plate))”. For the same compound, the CFU/mL ([5]; concentration 15 μg/mL) was “Lawn”, the “Number of Colonies” value [5, 28] was “Lawn (‘Lawn’ indicates too many colonies to accurately count (e.g., greater than 250 colonies on an agar plate))” and the CFU/mL ([5]; concentration 30 μg/mL) was “Lawn”. The “Number of Colonies” value [5, 29] was “Lawn (‘Lawn’ indicates too many colonies to accurately count (e.g., greater than 250 colonies on an agar plate))”, the CFU/mL ([5]; concentration 60 μg/mL) was 166.67 CFU/mL and the “Number of Colonies” value [5, 30] was 1.6667. For the same compound, the “MBC” value [5, 22] was 60 µg/mL, the CFU/mL ([6]; concentration 0.46875 μg/mL) was “Lawn” and the “Number of Colonies” value [6, 23] was “Lawn (‘Lawn’ indicates too many colonies to accurately count (e.g., greater than 250 colonies on an agar plate))”. For the same compound, the CFU/mL ([6]; concentration 0.9375 μg/mL) was “Lawn”, the “Number of Colonies” value [6, 24] was “Lawn (‘Lawn’ indicates too many colonies to accurately count (e.g., greater than 250 colonies on an agar plate))” and the CFU/mL ([6]; concentration 1.875 μg/mL) was 1133.3 CFU/mL. The “Number of Colonies” value [6, 25] was 11.333, the CFU/mL ([6]; concentration 3.75 μg/mL) was 1500 CFU/mL and the “Number of Colonies” value [6, 26] was 15. The CFU/mL ([6]; concentration 7.5 μg/mL) was 33.333 CFU/mL, the “Number of Colonies” value [6, 27] was 0.333 and the CFU/mL ([6]; concentration 15 μg/mL) was 0 CFU/mL. The “Number of Colonies” value [6, 28] was 0, the CFU/mL ([6]; concentration 30 μg/mL) was 0 CFU/mL and the “Number of Colonies” value [6, 29] was 0. The CFU/mL ([6]; concentration 60 μg/mL) was 0 CFU/mL, the “Number of Colonies” value [6, 30] was 0 and the “MBC” value [6, 22] was 7.5 µg/mL. The “MIC of BZK Alone” value ([7]; alone) was 15 µg/mL, the “MIC of BZK in Presence of CHG” value ([7]; in presence of CHG) was 0.2344 µg/mL and the “MIC of BZK Alone” value ([8]; alone) was 60 µg/mL. The “MIC of BZK in Presence of CHG” value ([8]; in presence of CHG) was 7.5 µg/mL, the “MIC of BZK Alone” value ([9]; alone) was 0.9375 µg/mL and the “MIC of BZK in Presence of CHG” value ([9]; in presence of CHG) was 0.469 µg/mL.
